{"source": "patent US10898476B2", "about": "“Heat shock proteins and cholesterol homeostasis” (Orphazyme A/S, priority 2016, dated 2021)", "key": {"ABCA1 [1]": {"test_system": "ABCA1", "assay": "ABCA1 protein levels by Western blotting in macrophage foam cells", "assay_type": "cell-based, human", "details": "during cholesterol loading and efflux; FIG. 2b", "protocol": "(§1) FIG. 2 Effect of rHsp70 on ABCA1 transcript and protein levels in primary human macrophage foam cells. Macrophages were loaded with acLDL followed by cholesterol efflux to complete medium in the absence or presence of rHSP70. (a) The ABCA1 mRNA levels were measured by qRT-PCR. Data are mean±SEM, n=6 blood donors with triplicate measurements. (b) Cells were harvested and equal amounts of protein separated by SDS-PAGE and analyzed by Western blotting using a polyclonal anti-ABCA1 antibody. ProAct staining was used as a loading control. Data are mean±SEM, n=7 blood donors.\n(§2) Cells were collected in PBS and centrifuged at 2000 rpm for 10 min at 4° C. Cell pellets were lysed in either RNA lysis buffer or in RIPA buffer containing protease inhibitors for transcript or protein analysis.\nProtein lysates were cleared by centrifugation at 12000 rpm for 10 min at 4° C. Protein concentration was determined using the Bio-Rad protein assay kit. Equal amount of total protein was loaded on 8% SDS-polyacrylamide gel and Western blotting was performed using polyclonal anti-ABCA1 antibody (1:500, Novus Biologicals). The primary antibody was detected with anti-rabbit secondary antibody (1:2000, Sigma). The blots were developed using the Enhanced Chemiluminiscense kit (Amersham). Protein bands were normalized to Proact membrane stain (Amresco). Quantitation of protein bands was performed using ImageJ program."}, "[2]": {"test_system": "primary murine bone marrow macrophage foam cells", "assay": "BODIPY-cholesterol efflux to 6% HDL enriched serum, confocal imaging", "assay_type": "cell-based", "details": "24 h efflux to 6% HDL enriched serum; FIG. 4", "protocol": "FIG. 4 rHSP70 speeds up BODIPY-cholesterol efflux from primary murine macrophage foam cells. Primary murine bone marrow macrophage foam cells were incubated with BODIPYcholesteryl linoleate-LDL particles. Cholesterol efflux was performed for 24 h to 6% HDL enriched serum in the presence or absence of rHSP70. Images were taken using Leica SP8 scanning confocal microscope at the indicated time points. (a) Total cell BODIPY-cholesterol intensity changes were calculated using ImageJ and data normalized to 0 h. (b) Representative images of BODIPY-cholesterol intensity changes over time. n=60-100 cells/condition. *: p<0.05.\nrHSP70 speeds up BODIPY-cholesterol efflux from primarymurine macrophage foam cells. Primary murine bone marrow macrophage foam cells were incubated with BODIPYcholesteryl linoleate-LDL particles. Cholesterol efflux was performed for 24 h to 6% HDL enriched serum in the presence or absence of rHSP70."}, "ABCA1 [3]": {"test_system": "ABCA1", "assay": "ABCA1 mRNA levels by qRT-PCR in macrophage foam cells", "assay_type": "cell-based, human", "details": "during cholesterol loading and efflux; normalized to 18S mRNA; FIG. 2a", "protocol": "as §1, §2\nTotal RNA was isolated using NucleoSpin RNA isolation kit (Macherey-Nagel). 1.5 μg of total RNA was transcribed using SuperScript VILO cDNA synthesis kit (Invitrogen). abca1 primers Fwd 5′-[…], Rev 5′-[…] (Sigma) and 18S primers Fwd 5′-[…], Rev 5′-CCCCGCGAGCACAGA (Sigma) were used for qRT-PCR with Light Cycler 480 SYBER Green I Master Mix (Roche). Reaction mixtures were prepared according to the manufacturer's instructions. Reaction steps: 95° C. 15 min and 40 cycles of 95° C. 15 sec, 60° C. 30 sec and 72° C. 10 sec. […] Relative quantities of mRNAs were normalized to 18S mRNA."}, "[4]": {"test_system": "LXR targets such as ABCA1, FABP4 and GRAMD1A", "assay": "RNA sequencing of LXR targets in macrophage foam cells", "assay_type": "cell-based, human", "details": "during cholesterol efflux; 4 blood donors; FIG. 5", "protocol": "FIG. 5 The effect of rHSP70 on transcript levels of selected LXR targets in primary human macrophage foam cells. Macrophage foam cells from 4 individual blood donors were incubated −/+rHSP70 during cholesterol efflux and RNAs were extracted. RNA sequencing was performed by Illumina NextSeq sequencer. RNASeq results were analysed using “Gene Set Enrichment Analysis”. Selected LXR pathway targets modulated by rHSP70 administration were plotted against their transcript count numbers. Front row: FABP4; middle row: GRAMD1A; back row: ABCA1.\n(§3) Effect of rHsp70 on the transcript and protein levels of LXR targets in primary human macrophage foam cellsMacrophage foam cells from 4 individual blood donors were incubated −/+rHSP70 during cholesterol efflux and RNAs were extracted. RNA sequencing was performed by Illumina NextSeq sequencer. RNASeq results were analysed using “Gene Set Enrichment Analysis”."}, "[5]": {"test_system": "LXR targets (ABCA1, GRAMD1A, FABP4)", "assay": "Western blotting of LXR targets in macrophage foam cells", "assay_type": "cell-based, human", "details": "during cholesterol efflux; FIG. 6", "description": "FIG. 6 The effect of rHSP70 on protein levels of selected LXR targets in primary human macrophage foam cells. Cells (as described for FIG. 5) were harvested and equal amounts of protein separated by SDS-PAGE and analyzed by Western blotting. Data are mean±SEM, n=7 blood donors. *: p<0.05; **: p<0.01. (a) ABCA1, (b) GRAMD1A, (c) FABP4.\nas §3"}, "[6]": {"test_system": "primary human macrophage foam cells", "assay": "Cholesterol efflux from acLDL-loaded macrophage foam cells to complete medium, lipids by TLC", "assay_type": "cell-based", "protocol": "FIG. 1 rHSP70 stimulates the removal of cholesterol from primary human macrophage foam cells. Differentiated human macrophages were loaded with acLDL (50 μg/mL) for 3 days. Cholesterol efflux was performed for 12 h to complete medium in the presence or absence of rHSP70 (20 ug/ml). Lipids were analyzed by TLC. Pooled data from 8 blood donors from 8 independent experiments and three technical replicates, mean±SEM.\nFIG. 3 The effect of rHsp70 dose and BMP binding on cholesterol efflux from primary human macrophage foam cells. Macrophages were loaded with acLDL followed by cholesterol efflux to complete medium in the absence or presence of rHSP70 as in FIG. 1. Either wild-type or W90F mutant (mut) rHsp70 was employed at the final concentrations of 20 or 200 μg/mL Pooled data from 2 individual donors with 3 technical replicates, mean±SEM.\nHuman primary white blood cells, isolated from healthy blood donors were acquired form the Finnish Red Cross (permit number 21/2015). Peripheral blood mononuclear cells (PBMCs) were isolated by Ficoll layering (Boyum, A., 1964) with Ficoll-Paque Premium (GE Healthcare). […]\nCells were harvested in 2% NaCl solution and lipids were extracted as described in Bligh and Dyer (1959). […] The TLC plate was charred and free cholesterol and cholesterol ester bands were quantitated using ImageJ. […]"}, "[7]": {"test_system": "acid sphingomyelinase (ASMase)", "details": "via binding to bismonoacylglycerophosphate (BMP); Mahalka et al, 2014; cited from earlier work"}}, "data": [{"substance": "rHSP70: His-tagged recombinant wildtype Hsp70 supplied by Orphazyme ApS, Denmark", "values": [{"measurement": "ABCA1 protein level", "setting": "ABCA1 [1]", "value": "significant increase"}, {"measurement": "BODIPY-cholesterol efflux", "setting": "[2]", "value": "speeds up"}, {"measurement": "ABCA1 transcript level", "setting": "ABCA1 [3]", "value": "significant increase"}, {"measurement": "transcript levels of LXR targets", "setting": "[4]", "value": "major transcriptional re-programming"}, {"measurement": "protein levels of LXR targets", "setting": "[5]", "value": "These changes can also be seen at the protein level"}, {"measurement": "cholesterol removal (efflux) from foam cells", "setting": "[6]; 20 ug/ml, 16 h pretreatment during loading, then 12 h efflux to complete medium (RPMI, 10% FBS), FIG. 1, FIG. 3", "value": "significantly enhanced"}, {"measurement": "whether a higher dosage improves the cholesterol efflux promoting effect", "setting": "[6]; 200 ug/ml compared with 20 ug/ml, before and during 12 h efflux, FIG. 3", "value": "found not to be the case"}, {"measurement": "activity of acid sphingomyelinase (ASMase)", "setting": "[7]", "value": "stabilize and enhance"}]}]}
